In patent publication US6756233B1, “Method for measuring free ligands in biological fluids, and assay kits for measuring same” (priority 1985, dated 2004):
“And” between values parts separate entries of the source, which are not always exact repeats. Identical values can stand only once. Like-named read-outs stand apart in the source and are kept apart here.

How the values were obtained:
[1] = target: T1, sex hormone-binding globulin (SHBG) (Homo sapiens, UniProt P04278); assay: Free testosterone assay, SHBG-spiked serum pool (Example 3); details: charcoal-absorbed human serum pool spiked with 400 μg SHBG/milliliter
T1 sequence (P04278 30-402): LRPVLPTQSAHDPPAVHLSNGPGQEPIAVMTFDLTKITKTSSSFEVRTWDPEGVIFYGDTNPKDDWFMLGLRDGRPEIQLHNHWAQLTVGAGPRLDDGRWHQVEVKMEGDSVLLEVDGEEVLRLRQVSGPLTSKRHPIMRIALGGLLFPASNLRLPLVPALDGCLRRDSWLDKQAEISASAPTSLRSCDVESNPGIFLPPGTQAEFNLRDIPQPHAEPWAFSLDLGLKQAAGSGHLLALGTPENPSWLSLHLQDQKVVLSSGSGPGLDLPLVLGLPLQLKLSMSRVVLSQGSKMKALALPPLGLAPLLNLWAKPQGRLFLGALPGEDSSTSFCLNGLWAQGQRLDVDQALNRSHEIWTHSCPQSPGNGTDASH
Procedure: To investigate the effect of sex hormone-binding globulin (SHBG) levels on the free testosterone assay system, a charcoal-absorbed human serum pool was spiked with 400 μg SHBG/milliliter, a level which is approximately 10 times normal.
Since charcoal absorption removes testosterone from the serum pool, it should have free (and total) testosterone concentrations of zero—that is, percent bound values of approximately 100% B/Bo—both before and after spiking.

[2] = tested on: transport proteins; details: single samples
Procedure: Free testosterone calibrators, prepared by adding different amounts of testosterone to human serum free of any apparent testosterone, were calibrated by direct equilibrium dialysis and assigned free testosterone values in pg/ml. […] The tubes are incubated for 4 hours at 37° C., then decanted and radioactivity counted. Results are computed by interpolation to from the calibration curve.

[3] = tested on: endogenous binders
[4] = tested on: albumin and/or SHBG; parameters: species or system human
Procedure: Testosterone was selected as a representative member of this family. […] This analog tracer was subsequently compounded in 0.01 M HEPES buffer, pH=7.4, containing 1 mg/ml charcoal-absorbed human serum albumin and 0.01% sodium azide. Blocking agents were added, as described in the specific examples below.

[5] = target: T2, albumin (Homo sapiens, UniProt P02768); details: cited from earlier work
T2 sequence (P02768 25-609): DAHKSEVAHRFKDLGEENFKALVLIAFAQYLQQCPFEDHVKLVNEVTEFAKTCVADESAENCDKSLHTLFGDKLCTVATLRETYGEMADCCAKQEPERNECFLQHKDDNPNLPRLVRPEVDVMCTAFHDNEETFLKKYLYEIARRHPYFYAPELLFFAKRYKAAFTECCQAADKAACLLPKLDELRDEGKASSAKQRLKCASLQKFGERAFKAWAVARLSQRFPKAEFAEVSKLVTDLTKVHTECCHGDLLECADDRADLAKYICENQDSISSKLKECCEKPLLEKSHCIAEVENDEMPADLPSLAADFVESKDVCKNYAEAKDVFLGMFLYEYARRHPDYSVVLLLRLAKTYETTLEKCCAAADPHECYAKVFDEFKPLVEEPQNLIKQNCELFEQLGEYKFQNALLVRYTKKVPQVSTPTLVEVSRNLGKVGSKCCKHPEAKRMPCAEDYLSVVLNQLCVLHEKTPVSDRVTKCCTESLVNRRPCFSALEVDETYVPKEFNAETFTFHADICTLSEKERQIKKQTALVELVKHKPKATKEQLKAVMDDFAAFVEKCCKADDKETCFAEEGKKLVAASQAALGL

[6] = tested on: anti-T4 antibody-coated tubes; assay: Free T4 assay of 20 samples with tracers holding different blocking agents (Example 5); parameters: species or system rabbits
Procedure: The tubes are then incubated for 60 minutes at 37° C. After this incubation the tubes are decanted and the bound radioactivity is counted. Results are calculated from the calibration curve and expressed in ng/dl.
Iodinated T4 analog was compounded as described above and divided into five aliquots. To each aliquot the following reagents were added.
Considering tracer 1 as the reference and comparing the others to it, the following results were obtained.

[7] = target: T2, albumin; assay: Free testosterone assay, effect of oleic acid (Example 6); parameters: from tissue; host or cells: patient serum samples
Procedure: Since non-esterified free fatty acids (NEFA) have a higher association constant to albumin than does testosterone, addition of NEFA should displace free testosterone from albumin. This was confirmed by an experiment in which various amounts of oleic acid were added to each of three patient samples.

Compound: 6-hydroxytestosterone-19-carboxymethyl ether histamine
- percent bound value, B/Bo [1]: 99%
- percent bound (% B/Bo) After charcoal absorption ([2]; 3rd Trimester): 99% and 96% and 97%
- percent bound (% B/Bo) After charcoal absorption ([2]; Normal Females): 105% and 104%
- binding to endogenous binders [3]: does not bind to endogenous binders

Compound: O=[N+]([O-])c1ccc(O)c([N+](=O)[O-])c1 [2,4-dinitrophenol]
- effect on protein-bound testosterone and tracer [4]: displace testosterone from albumin and/or SHBG
- association constant, albumin (single aromatic compounds) [5]: 11,000

Compound: O=S(=O)(O)c1cccc2cccc(Nc3ccccc3)c12 [ANS, 8-anilino-1-naphthalenesulfonic acid]
- effect on protein-bound testosterone and tracer [4]: displace testosterone from albumin and/or SHBG

Compound: CCCCCCCC/C=C\CCCCCCCC(=O)O [oleic acid]
- oleic acid concentration in the tracer that displaces bound unlabeled T4 from albumin [6]: greater than 1.0 mmol/l
- apparent free testosterone level, Mean ([7]; Oleic Acid Added 2.5 mmol/l): 7.9 pg/mL
- apparent free testosterone level, Mean ([7]; Oleic Acid Added 5.0 mmol/l): 14.8 pg/mL
- apparent free testosterone level, Patients 1-3 ([7]; Oleic Acid Added 5.0 mmol/l): 11.6 pg/mL and 11.1 pg/mL and 21.8 pg/mL
- apparent free testosterone level, Mean ([7]; Oleic Acid Added 7.5 mmol/l): 23.2 pg/mL
- apparent free testosterone level, Mean ([7]; Oleic Acid Added 10.0 mmol/l): 32.0 pg/mL

Compound: O=C1OC(c2ccc(O)c(S(=O)(=O)O)c2)(c2ccc(O)c(S(=O)(=O)O)c2)c2c(Br)c(Br)c(Br)c(Br)c21 [sulfobromophthalein]
- effect on protein-bound testosterone and tracer [4]: inhibits the binding of the analog tracer to albumin without displacing testosterone bound to albumin
